Patent US20240294541A1, “COMPOUNDS CONSTITUTING C20-MODIFIED SALINOMYCIN DERIVATIVES, A METHOD FOR OBTAINING THE SAME, A COMPOSITION CONTAINING THE SAME AND A USE OF SAID COMPOUNDS” (FILECLO SPOLKA Z OGRANICZONA ODPOWIEDZIALNOSCIA, priority 2021, published 2024)
Read-outs that look alike come from different tables or passages of the source.

Key:
Format in all cases: cell-based
[1] = tested on: NCI-H23 (human lung cancer); assay: In vitro cytotoxicity, SRB assay, NCI-H23; details: for IC50: Homo sapiens; for NCI-H23 SI: selectivity coefficient vs normal BALB/3T3 cells
[2] = tested on: PFSK-1 (malignant primitive neuroectodermal tumour); assay: In vitro cytotoxicity, SRB assay, PFSK-1; details: for IC50: Homo sapiens; for PFSK-1 SI: selectivity coefficient vs normal BALB/3T3 cells
[3] = tested on: A2780 (human ovarian cancer); assay: In vitro cytotoxicity, SRB assay, A2780; details: for IC50: Homo sapiens; for A2780 SI: selectivity coefficient vs normal BALB/3T3 cells
[4] = tested on: A2780Cis (cisplatin-resistant human ovarian cancer); assay: In vitro cytotoxicity, SRB assay, A2780Cis; details: for IC50: Homo sapiens, A2780cis, 72 h, read-out: A2780Cis IC50 (nM)
A375 (human melanoma) = assay: In vitro cytotoxicity, SRB assay, A375; details: for IC50: Homo sapiens; for A375 SI: selectivity coefficient vs normal BALB/3T3 cells
Hs294T (human melanoma) = assay: cells; details: for IC50: Homo sapiens, Hs 294T, 72 h with compound, SRB, n/a = non-active compound, read-out: Hs294T IC50; for Hs294T SI: selectivity coefficient vs normal BALB/3T3 cells
[5] = tested on: PLC/PRF/5 (human liver cancer); assay: cells; details: for IC50: Homo sapiens, PLC-PRF-5, 72 h with compound, SRB, n/a = non-active compound, read-out: PLC/PRF/5 IC50; for PLC/PRF/5 SI: selectivity coefficient vs normal BALB/3T3 cells
[6] = tested on: SNU-16 (human gastric cancer); assay: cells; details: for IC50: Homo sapiens, SNU-16, 72 h with compound, MTT, n/a = non-active compound, read-out: SNU-16 IC50; for SNU-16 SI: selectivity coefficient vs normal BALB/3T3 cells
[7] = tested on: KG-1 (human acute myeloid leukaemia); assay: In vitro cytotoxicity, MTT assay, KG-1; details: for IC50: Homo sapiens, 72 h with compound, MTT, n/a = non-active compound; for KG-1 SI: selectivity coefficient vs normal BALB/3T3 cells
[8] = tested on: MIA PaCa-2 (human pancreatic cancer); assay: cells; details: for IC50: Homo sapiens, MIA PaCa-2, 72 h with compound, SRB, n/a = non-active compound, read-out: MIA PaCa-2 IC50; for MIA PaCa-2 SI: selectivity coefficient vs normal BALB/3T3 cells
[9] = tested on: BALB/3T3 (normal mouse fibroblasts); assay: In vitro cytotoxicity, SRB assay, normal BALB/3T3 fibroblasts; details: Mus musculus, BALB/3T3; normal cells; 72 h with compound, SRB; n/a = non-active compound; read-out: BALB/3T3 IC50
[10] = NCI-H23, 72 h with compound, SRB, n/a = non-active compound, read-out: NCI-H23 IC50
[11] = PFSK-1, 72 h with compound, SRB, n/a = non-active compound, read-out: PFSK-1 IC50
[12] = A2780, 72 h with compound, SRB, n/a = non-active compound, read-out: A2780 IC50
[13] = A-375, 72 h with compound, SRB, n/a = non-active compound, read-out: A375 IC50

Compound | IC50 [1, 10] [nM] | NCI-H23 SI [1] | IC50 [2, 11] [nM] | PFSK-1 SI [2] | A2780 SI [3] | A2780Cis RI [4] | A2780Cis SI [4] | IC50 [4] [nM] | A375 SI (A375 (human melanoma)) | IC50 (Hs294T (human melanoma)) [nM] | Hs294T SI (Hs294T (human melanoma)) | IC50 [5] [nM] | PLC/PRF/5 SI [5] | IC50 [6] [nM] | SNU-16 SI [6] | IC50 [7] [nM] | KG-1 SI [7] | IC50 [8] [nM] | MIA PaCa-2 SI [8] | IC50 [9] [nM] | other results
CCOC(=O)CNC(=S)N[C@@H]1C=C[C@]2(O[C@H]([C@@H](CC)C(=O)[C@@H](C)[C@@H](O)[C@H](C)[C@@H]3O[C@@H]([C@@H](CC)C(=O)O)CC[C@@H]3C)[C@@H](C)C[C@H]2C)O[C@@]12CC[C@@](C)([C@H]1CC[C@](O)(CC)[C@H](C)O1)O2 [FLC-00352-1] | 234 | 0.5 | 45.2 | 2.5 | 53.8 | 1.8 | 30.4 | 3.77 | 0.3 | 416 | 0.3 | 32.9 | 3.5 | 52.8 | 2.2 | 30 | 3.8 | 50.9 | 2.3 | 115 | IC50 [3, 12]: 2.14 nM; IC50 (A375 (human melanoma); [13]): 459 nM
CC[C@@H](C(=O)[C@@H](C)[C@@H](O)[C@H](C)[C@@H]1O[C@@H]([C@@H](CC)C(=O)O)CC[C@@H]1C)[C@H]1O[C@]2(C=C[C@@H](NC(=O)NCCc3ccccc3)[C@]3(CC[C@@](C)([C@H]4CC[C@](O)(CC)[C@H](C)O4)O3)O2)[C@H](C)C[C@@H]1C [FLC-00362-1] | 62.4 | 2.5 | 38.4 | 4.0 | 13.6 | 1.1 | 12.9 | 11.9 | 0.5 | 473 | 0.3 | 32 | 4.8 | 17 | 9.0 | 36.8 | 4.2 | 73.8 | 2.1 | 153 | IC50 [3, 12]: 11.3 nM; IC50 (A375 (human melanoma); [13]): 281 nM
CC[C@@H](C(=O)[C@@H](C)[C@@H](O)[C@H](C)[C@@H]1O[C@@H]([C@@H](CC)C(=O)O)CC[C@@H]1C)[C@H]1O[C@]2(C=C[C@@H](NC(=S)Nc3ccc(Cl)c(Cl)c3)[C@]3(CC[C@@](C)([C@H]4CC[C@](O)(CC)[C@H](C)O4)O3)O2)[C@H](C)C[C@@H]1C [FLC-00379-1] | – | 11.0 | – | 14.9 | 22.8 | 0.2 | 121.2 | 0.81 | 1.4 | 108 | 0.9 | 22.1 | 4.5 | 18 | 5.5 | 39 | 2.5 | 52.6 | 1.9 | 98.2 | IC50 ([1]; NCI-H23, 72 h, read-out: NCI-H23 IC50 (nM)): 8.96 nM; IC50 ([2]; PFSK-1, 72 h, read-out: PFSK-1 IC50 (nM)): 6.6 nM; IC50 ([3]; A2780, 72 h, read-out: A2780 IC50 (nM)): 4.31 nM; IC50 (A375 (human melanoma); A-375, 72 h, read-out: A375 IC50 (nM)): 68.1 nM
C=CCNC(=O)N[C@@H]1C=C[C@]2(O[C@H]([C@@H](CC)C(=O)[C@@H](C)[C@@H](O)[C@H](C)[C@@H]3O[C@@H]([C@@H](CC)C(=O)O)CC[C@@H]3C)[C@@H](C)C[C@H]2C)O[C@@]12CC[C@@](C)([C@H]1CC[C@](O)(CC)[C@H](C)O1)O2 [FLC-00353-1] | 410 | 0.6 | 13.4 | 16.9 | 199.8 | 1.1 | 180.6 | 1.26 | 2.1 | 612 | 0.4 | 31.5 | 7.2 | 88.6 | 2.6 | 34.3 | 6.6 | 28.9 | 7.8 | 227 | IC50 [3, 12]: 1.14 nM; IC50 (A375 (human melanoma); [13]): 107 nM
CC[C@@H](C(=O)[C@@H](C)[C@@H](O)[C@H](C)[C@@H]1O[C@@H]([C@@H](CC)C(=O)O)CC[C@@H]1C)[C@H]1O[C@]2(C=C[C@@H](NC(=O)Nc3ccccc3C(F)(F)F)[C@]3(CC[C@@](C)([C@H]4CC[C@](O)(CC)[C@H](C)O4)O3)O2)[C@H](C)C[C@@H]1C [FLC-00381-1] | 46.3 | 3.4 | 50.4 | 3.2 | 11.9 | 0.5 | 21.7 | 7.34 | 0.8 | 138 | 1.2 | 62.4 | 2.5 | 63.8 | 2.5 | 36.4 | 4.4 | 69.6 | 2.3 | 159 | IC50 [3, 12]: 13.4 nM; IC50 (A375 (human melanoma); [13]): 189 nM
CC[C@@H](C(=O)[C@@H](C)[C@@H](O)[C@H](C)[C@@H]1O[C@@H]([C@@H](CC)C(=O)O)CC[C@@H]1C)[C@H]1O[C@]2(C=C[C@@H](NC(=O)NC3CCCC3)[C@]3(CC[C@@](C)([C@H]4CC[C@](O)(CC)[C@H](C)O4)O3)O2)[C@H](C)C[C@@H]1C [FLC-00351-1] | 112 | 0.6 | 10.7 | 6.2 | 148.7 | 1.2 | 125.6 | 0.53 | 0.6 | 360 | 0.2 | 22.3 | 3.0 | 24.5 | 2.7 | 23.7 | 2.8 | 22 | 3.0 | 66.6 | IC50 [3, 12]: 0.45 nM; IC50 (A375 (human melanoma); [13]): 104 nM
CC[C@@H](C(=O)[C@@H](C)[C@@H](O)[C@H](C)[C@@H]1O[C@@H]([C@@H](CC)C(=O)O)CC[C@@H]1C)[C@H]1O[C@]2(C=C[C@@H](NC(=O)NCCCl)[C@]3(CC[C@@](C)([C@H]4CC[C@](O)(CC)[C@H](C)O4)O3)O2)[C@H](C)C[C@@H]1C [FLC-00338-1 Na] | 620 | 0.3 | 53.1 | 3.1 | 30.4 | 1.9 | 16.2 | 10.1 | 0.5 | 1870 | 0.1 | 61.6 | 2.7 | 39.2 | 4.2 | 222 | 0.7 | 58.6 | 2.8 | 164 | IC50 [3, 12]: 5.4 nM; IC50 (A375 (human melanoma); [13]): 354 nM
CC[C@@H](C(=O)[C@@H](C)[C@@H](O)[C@H](C)[C@@H]1O[C@@H]([C@@H](CC)C(=O)O)CC[C@@H]1C)[C@H]1O[C@]2(C=C[C@@H](NC(=S)NC3CCCCC3)[C@]3(CC[C@@](C)([C@H]4CC[C@](O)(CC)[C@H](C)O4)O3)O2)[C@H](C)C[C@@H]1C [FLC-00377-1] | 5.7 | 12.9 | 7.82 | 9.4 | 20.6 | 0.4 | 47.2 | 1.56 | 1.1 | 94.8 | 0.8 | 18.8 | 3.9 | 51.8 | 1.4 | 18.3 | 4.0 | 41.6 | 1.8 | 73.3 | IC50 [3, 12]: 3.55 nM; IC50 (A375 (human melanoma); [13]): 65.5 nM
CC[C@@H](C(=O)[C@@H](C)[C@@H](O)[C@H](C)[C@@H]1O[C@@H]([C@@H](CC)C(=O)O)CC[C@@H]1C)[C@H]1O[C@]2(C=C[C@@H](NC(=O)Nc3ccc(F)cc3F)[C@]3(CC[C@@](C)([C@H]4CC[C@](O)(CC)[C@H](C)O4)O3)O2)[C@H](C)C[C@@H]1C [FLC-00359-1] | 148 | 0.5 | 19.4 | 3.8 | 45.1 | 0.7 | 65.3 | 1.12 | 0.3 | 212 | 0.3 | 38.6 | 1.9 | 9.57 | 7.6 | 13.1 | 5.6 | 37.7 | 1.9 | 73 | IC50 [3, 12]: 1.62 nM; IC50 (A375 (human melanoma); [13]): 228 nM
